The values that follow come from PMC8815882, “Screening the pandemic response box identified benzimidazole carbamates, Olorofim and ravuconazole as promising drug candidates for the treatment of eumycetoma” (PLoS Neglected Tropical Diseases, 2022).

The structures appear in SMILES notation. Where “and” joins values, the source holds several entries; their conditions need not be identical. Equal entries are not always repeated. Where two headings read alike, the source gives them in different places.

This experiment has as its system M. mycetomatis genome strain MM55. Briefly: CLSI M38-A2 based in vitro susceptibility screening (XTT or resazurin), growth at fixed concentration. Type of experiment: cell-based, Madurella mycetomatis. As to conditions: for activity at 25 µM / activity at 100 µM / Percent fungal survival at 100 µM: Madurella mycetomatis. A general note: Tetrazolium assays rely on reduction of a dye to a coloured formazan, in cell work by metabolically active cells.

The mark [1] stands for this setting: 25 uM, mean of three replicates, read-out: Percentage survival at 25um, 25 uM mean.
Setting [2] is: 25 uM, replicate A, read-out: Percentage survival at 25um, 25 um A.
The mark [3] stands for this setting: 25 uM, replicate B, read-out: Percentage survival at 25um, 25 uM B.
Setting [4] is: 25 uM, replicate C, read-out: Percentage survival at 25um, 25 uM C.
Where [5] appears, read: 100 uM, first replicate column, read-out: Percentage survival at 100um, 100 uM A.
[6] abbreviates: 100 uM, mean of three replicates, read-out: Percentage survival at 100um, 100 uM mean.
Setting [7] is: 100 uM, second replicate column, read-out: Percentage survival at 100um, 100 uM A.
Where [8] appears, read: 100 uM, third replicate column, read-out: Percentage survival at 100um, 100 uM A.
Where [9] appears, read: 25 uM, mean of replicates, read-out: Percentage survival at 25um, 25 uM mean.
The mark [10] stands for this setting: 100 uM, mean of replicates, read-out: Percentage survival at 100um, 100 uM mean.
Setting [11] is: 100 uM, replicate 1, read-out: Percentage survival at 100um, 100 uM A.
Setting [12] is: 100 uM, replicate 2, read-out: Percentage survival at 100um, 100 uM A.
Setting [13] is: 100 uM, replicate 3, read-out: Percentage survival at 100um, 100 uM A.
Setting [14] is: 25 uM, mean of replicates, MM55, read-out: Percentage survival at 25um, 25 uM mean.
[15] abbreviates: 25 uM, replicate A, MM55, read-out: Percentage survival at 25um, 25 um A.
The mark [16] stands for this setting: 25 uM, replicate B, MM55, read-out: Percentage survival at 25um, 25 uM B.
Setting [17] is: 25 uM, replicate C, MM55, read-out: Percentage survival at 25um, 25 uM C.
The mark [18] stands for this setting: 100 uM, mean of replicates, MM55, read-out: Percentage survival at 100um, 100 uM mean.
The mark [19] stands for this setting: 100 uM, replicate 1, MM55, read-out: Percentage survival at 100um, 100 uM A.
Where [20] appears, read: 100 uM, replicate 2, MM55, read-out: Percentage survival at 100um, 100 uM A.
Setting [21] is: 100 uM, replicate 3, MM55, read-out: Percentage survival at 100um, 100 uM A.
Where [22] appears, read: read-out: Percentage survival at 25um, 25 uM B.
Setting [23] is: read-out: Percentage survival at 25um, 25 uM C.
Where [24] appears, read: read-out: Percentage survival at 25um, 25 uM mean.
[25] abbreviates: 25 uM, replicate A, M. mycetomatis MM55, read-out: Percentage survival at 25um, 25 um A.
[26] abbreviates: 100 uM, mean of three, M. mycetomatis MM55, read-out: Percentage survival at 100um, 100 uM mean.
The mark [27] stands for this setting: 100 uM, replicate 1, M. mycetomatis MM55, read-out: Percentage survival at 100um, 100 uM A (first replicate column).
Setting [28] is: 100 uM, replicate 2, M. mycetomatis MM55, read-out: Percentage survival at 100um, 100 uM A (second replicate column).
Setting [29] is: 100 uM, replicate 3, M. mycetomatis MM55, read-out: Percentage survival at 100um, 100 uM A (third replicate column).
The mark [30] stands for this setting: 25 uM, mean of three, M. mycetomatis MM55, read-out: Percentage survival at 25um, 25 uM mean.
The mark [31] stands for this setting: 25 uM, replicate B, M. mycetomatis MM55, read-out: Percentage survival at 25um, 25 uM B.
The mark [32] stands for this setting: 25 uM, replicate C, M. mycetomatis MM55, read-out: Percentage survival at 25um, 25 uM C.
The mark [33] stands for this setting: 25 uM, mean, read-out: Percentage survival at 25um, 25 uM mean.
[34] abbreviates: 100 uM, mean, read-out: Percentage survival at 100um, 100 uM mean.
Where [35] appears, read: 100 uM, replicate (first column), read-out: Percentage survival at 100um, 100 uM A.
Setting [36] is: 100 uM, replicate (second column), read-out: Percentage survival at 100um, 100 uM A.
[37] abbreviates: 100 uM, replicate (third column), read-out: Percentage survival at 100um, 100 uM A.

Consider `COc1ccccc1NC(=O)c1ccccc1Sc1ccc([N+](=O)[O-])cc1` [MMV1580484], for which the activity at 25 µM runs as follows: under setting [1], 65.2%; under setting [2], 65.9%; under setting [3], 69.7%; under setting [4], 60.2%. In addition, the activity at 100 µM under setting [5] worked out at 60.9%, the activity at 100 µM under setting [6] worked out at 60.4%, the activity at 100 µM under setting [7] is 56% and the activity at 100 µM under setting [8] was determined as 64.4%.

With `O=C1NC(=O)C(Br)=C1Br` [MMV1578554], the activity at 25 µM runs as follows: under setting [9], 76.9%; under setting [2], 80.1%; under setting [3], 86.3%; under setting [4], 64.3%. For the same compound, the activity at 100 µM under setting [10] came to 43.3%, the activity at 100 µM under setting [11] was -3.69%, the activity at 100 µM under setting [12] is 60.2% and the activity at 100 µM under setting [13] came to 73.5%.

`CCc1ccc(C2CC(C(F)(F)F)n3ncc(C(=O)NCc4ccc(OC)cc4)c3N2)cc1` (stereo not shown) [MMV831201]: the activity at 25 µM worked out at 64.1% under setting [9], 65% under setting [2], 56.7% under setting [3] and 70.7% under setting [4]. Further, the activity at 100 µM by setting is: under setting [10], 67.5%; under setting [11], 62%; under setting [12], 63%; under setting [13], 77.5%.

Turning to `COc1cccc(N2CCN(C3=Nc4c(F)cccc4[C@H](CC(=O)O)N3c3cc(C(F)(F)F)ccc3OC)CC2)c1` [MMV690653], the activity at 25 µM is, setting by setting: under setting [1], 91%; under setting [2], 89.7%; under setting [3], 103%; under setting [4], 80%. In addition, the activity at 100 µM by setting is: under setting [5], 86.6%; under setting [6], 86.8%; under setting [7], 87.2%; under setting [8], 86.5%.

For the compound `CC(N)C12CC3CC(CC(C3)C1)C2` (stereo not shown) [MMV637855], the activity at 25 µM reads like this: under setting [14], 86%; under setting [15], 78.5%; under setting [16], 82.6%; under setting [17], 96.9%. Also, the activity at 100 µM is 60.7% under setting [18], 60.1% under setting [19], 57.9% under setting [20] and 64% under setting [21].

With `CC[C@H](CO)Nc1nc(NCc2ccccc2)c2ncn(C(C)C)c2n1` [MMV003820], the “Percentage survival at 100um, 100 uM A” value is 50.7482% and 60.4702%. Further, the activity at 25 µM under setting [22] worked out at 62.4%. For the same compound, the activity at 25 µM under setting [23] turned out to be 43.5%. The activity at 25 µM under setting [24] is 63.8%. Also, the activity at 25 µM (read-out: Percentage survival at 25um, 25 um A) stood at 85.5%. Under “read-out: Percentage survival at 100um, 100 uM A”, the activity at 100 µM was 48.1%. Where the note is “read-out: Percentage survival at 100um, 100 uM mean”, the activity at 100 µM worked out at 53.1%.

As for `CC1(C)[C@H](C(=O)O)N2C(=O)C[C@H]2S1(=O)=O` [MMV637945], the activity at 25 µM under setting [25] turned out to be 97.1%, the activity at 25 µM under setting [22] stood at 95.1%, the activity at 25 µM under setting [23] amounted to 84.6% and the activity at 25 µM under setting [24] worked out at 92.3%. Besides, the activity at 100 µM under setting [26] stood at 98.9%, the activity at 100 µM under setting [27] was found to be 99.5%, the activity at 100 µM under setting [28] was 112% and the activity at 100 µM under setting [29] worked out at 85.4%.

Consider `c1ccc(Cn2c(-c3ccccn3)nc3ccccc32)cc1` [MMV1578886], for which the activity at 25 µM under setting [9] turned out to be 60.6%, the activity at 25 µM under setting [2] is 64.1%, the activity at 25 µM under setting [3] stood at 69.2% and the activity at 25 µM under setting [4] turned out to be 48.7%. In addition, the activity at 100 µM under setting [10] was 7.34%, the activity at 100 µM under setting [11] turned out to be 12%, the activity at 100 µM under setting [12] was 5.19% and the activity at 100 µM under setting [13] turned out to be 4.84%.

Take `CCc1cc(Nc2cc(=O)n(CCN3CCN(C(=O)c4ccccc4)CC3)c(=O)[nH]2)ccc1C` [MMV1634383]: the activity at 25 µM turned out to be 84% under setting [9], 86.7% under setting [2], 79.7% under setting [3] and 85.7% under setting [4]. The activity at 100 µM is, setting by setting: under setting [10], 88.4%; under setting [11], 93%; under setting [12], 83.3%; under setting [13], 89%.

For the compound `Nc1nc2c(ncn2/C=C2/CC2(CO)CO)c(=O)[nH]1` [MMV1782210], the activity at 25 µM reads like this: under setting [14], 94.9%; under setting [15], 102%; under setting [16], 100%; under setting [17], 83.3%. The activity at 100 µM stood at 81.8% under setting [18], 89.9% under setting [19], 79.8% under setting [20] and 75.6% under setting [21].

In the case of `O=C(CCCC(F)(F)F)N1CCC(c2nc(-c3nccs3)no2)CC1` [MMV1582491], the activity at 25 µM by setting is: under setting [30], 73.3%; under setting [25], 68.8%; under setting [31], 80.7%; under setting [32], 70.4%. Also, the activity at 100 µM by setting is: under setting [26], 72.9%; under setting [27], 57%; under setting [29], 94.8%. Further, the Percent fungal survival at 100 µM under setting [28] worked out at 67%.

Take `C[C@H](c1cccc2ccccc12)N(C)Cc1ccccc1` [MMV1782221]: the activity at 25 µM came out at 60.5% under setting [30], 78.4% under setting [25], 99.2% under setting [31] and 3.87% under setting [32]. The activity at 100 µM was found to be 78.8% under setting [26], 56% under setting [27] and 117% under setting [29]. The Percent fungal survival at 100 µM under setting [28] was 63.1%.

On to `CC(C)(C)c1ccc(C(=O)NC(=O)N2CCCc3ccccc32)cc1` [MMV1782212], for which the activity at 25 µM is, setting by setting: under setting [33], 78.4%; under setting [2], 90.3%; under setting [3], 74.4%; under setting [4], 70.6%. Moreover, the activity at 100 µM is, setting by setting: under setting [34], 81.3%; under setting [35], 68.7%; under setting [36], 79.3%; under setting [37], 95.8%.

For `O=c1cc(Nc2ccc3ccccc3c2)[nH]c(=O)[nH]1` [MMV1581546], the activity at 25 µM runs as follows: under setting [30], 84.3%; under setting [25], 93.6%; under setting [31], 85%; under setting [32], 74.5%. For the same compound, the activity at 100 µM reads like this: under setting [26], 86%; under setting [27], 78.9%; under setting [29], 80.4%. Further, under setting [28], the Percent fungal survival at 100 µM was 98.5%.

Regarding `Oc1cc(-c2cccc3ccccc23)[nH]n1` [MMV422940], the activity at 25 µM runs as follows: under setting [33], 79.9%; under setting [2], 89.3%; under setting [3], 79.4%; under setting [4], 70.9%. Besides, the activity at 100 µM is, setting by setting: under setting [34], 81.4%; under setting [35], 88.2%; under setting [36], 73.6%; under setting [37], 82.2%.

In the case of `C=C(C)n1c(=O)n(Cc2ccccc2C)c2ccccc21` [MMV1579354], the activity at 25 µM reads like this: under setting [30], 79.6%; under setting [25], 93.1%; under setting [31], 79.3%; under setting [32], 66.5%. Further, the activity at 100 µM reads like this: under setting [26], 9.54%; under setting [27], 2.4%; under setting [29], 4.84%. Moreover, the Percent fungal survival at 100 µM under setting [28] amounted to 21.4%.
